Results taken from patent publication US20210253557A1, “SUBSTITUTED TRIAZOLE DERIVATIVES AND USES THEREOF” (Bayer Pharma Aktiengesellschaft, priority 2017, published 2021).
Structures can show the parent of a compound that is named as a salt.

How the values were obtained:
[1] = target: T1, human V2 receptor (Homo sapiens, UniProt P30518); test: Cellular in vitro assay for determining vasopressin receptor activity (V2, CRE-luciferase); type: cell-based; conditions: CHO cell line transfected with the human V2 receptor; [Arg8]-vasopressin at EC50 concentration; read-out: IC50 hV2
T1 construct: expressed in transfected cells; host or cells: CHO K1 (ATCC) expressing firefly luciferase under a CRE-responsive promoter
T1 sequence (P30518 whole entry): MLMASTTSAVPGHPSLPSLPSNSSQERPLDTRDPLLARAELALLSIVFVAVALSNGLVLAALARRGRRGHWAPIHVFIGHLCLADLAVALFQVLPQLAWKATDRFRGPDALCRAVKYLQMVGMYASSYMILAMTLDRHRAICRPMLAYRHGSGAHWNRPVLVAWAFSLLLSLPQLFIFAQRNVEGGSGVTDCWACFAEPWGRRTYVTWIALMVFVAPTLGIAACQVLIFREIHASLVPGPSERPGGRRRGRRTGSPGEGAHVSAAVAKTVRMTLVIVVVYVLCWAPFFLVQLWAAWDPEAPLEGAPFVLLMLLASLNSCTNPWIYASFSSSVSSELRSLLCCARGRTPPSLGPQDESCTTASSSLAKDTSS
Description: (§1) B-1. Cellular In Vitro Assay for Determining Vasopressin Receptor Activity
(§2) The identification of agonists and antagonists of the V1a and V2 vasopressin receptors from humans, rats and dogs as well as the quantification of the activity of the compounds of the invention is carried out using recombinant cell lines. These cell lines originally derive from a hamster's ovary epithelial cell (Chinese Hamster Ovary, CHO K1, ATCC: American Type Culture Collection, Manassas, Va. 20108, USA). The test cell lines constitutively express the human, rat or dog V1a or V2 receptors. In case of the Gαq-coupled V1a receptors, cells are also stably transfected with a modified form of the calcium-sensitive photoproteins aequorin (human and rat V1a) or obelin (dog V1a), which, after reconstitution with the cofactor coelenterazine, emit light when there are increases in free calcium concentrations [Rizzuto R, Simpson A W, Brini M, Pozzan T, Nature 358, 325-327 (1992); Illarionov B A, Bondar V S, Illarionova V A, Vysotski E S, Gene 153 (2), 273-274 (1995)]. The resulting vasopressin receptor cells react to stimulation of the recombinantly expressed V1a receptors by intracellular release of calcium ions, which can be quantified by the resulting photoprotein luminescence. The Gs-coupled V2 receptors are stably transfected into cell lines expressing the gene for firefly luciferase under control of a CRE-responsible promoter. Activation of V2 receptors induces the activation of the CRE-responsive promoter via cAMP increase, thereby inducing the expression of firefly luciferase. The light emitted by photoproteins of V1a cell lines as well as the light emitted by firefly luciferase of V2 cell lines corresponds to the activation or inhibition of the respective vasopressin receptor. The bioluminescence of the cell lines is detected using a suitable luminometer [Milligan G, Marshall F, Rees S, Trends in Pharmacological Sciences 17, 235-237 (1996)].
Vasopressin V2 receptor cell lines:
On the day before the assay, the cells are plated out in culture medium (DMEM/F12, 2% FCS, 2 mM glutamine, 10 mM HEPES) in 384-well microtiter plates and kept in a cell incubator (96% humidity, 5% v/v CO2, 37° C.). On the day of the assay, test compounds in various concentrations and the agonist [Arg^8]-vasopressin at EC50 concentration are added together to the wells, and plates are incubated for 3 hours in a cell incubator. Upon addition of the cell lysis reagent Triton™ and the substrate luciferin, luminescence of firefly luciferase is measured in a luminometer.
(§3) Table 1A below lists individual IC50 values for the compounds of the invention (including racemic mixtures as well as separated enantiomers) that were obtained from cell lines transfected with the human V1a or V2 receptor: […]

[2] = target: T2, human V1a receptor (Homo sapiens, UniProt P37288); test: Cellular in vitro assay for determining vasopressin receptor activity (V1a, aequorin luminescence); type: cell-based; conditions: for IC50: CHO cell line transfected with the human V1a receptor, [Arg8]-vasopressin at EC50 concentration, read-out: IC50 hV1a; for ratio IC50 hV2/hV1a: selectivity ratio of IC50 hV2 to IC50 hV1a
T2 construct: expressed in transfected cells; host or cells: CHO K1 (ATCC), also stably transfected with a modified aequorin
T2 sequence (P37288 whole entry): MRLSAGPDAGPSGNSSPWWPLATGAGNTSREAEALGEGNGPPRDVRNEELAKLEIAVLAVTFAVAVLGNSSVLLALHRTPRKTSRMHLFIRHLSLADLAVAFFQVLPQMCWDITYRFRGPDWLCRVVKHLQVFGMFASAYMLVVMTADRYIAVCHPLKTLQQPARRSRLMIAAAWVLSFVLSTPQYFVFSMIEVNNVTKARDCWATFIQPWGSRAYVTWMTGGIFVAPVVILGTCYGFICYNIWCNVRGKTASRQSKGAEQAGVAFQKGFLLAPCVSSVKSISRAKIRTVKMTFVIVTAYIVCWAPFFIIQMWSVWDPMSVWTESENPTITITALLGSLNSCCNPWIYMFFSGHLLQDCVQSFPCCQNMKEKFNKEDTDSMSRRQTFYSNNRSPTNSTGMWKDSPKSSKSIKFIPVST
Description: as §1, §2
Vasopressin V1a receptor cell lines:
On the day before the assay, the cells are plated out in culture medium (DMEM/F12, 2% FCS, 2 mM glutamine, 10 mM HEPES, 5 μg/ml coelenterazine) in 384-well microtiter plates and kept in a cell incubator (96% humidity, 5% v/v CO2, 37° C.). On the day of the assay, test compounds in various concentrations are placed for 10 minutes in the wells of the microtiter plate before the agonist [Arg^8]-vasopressin at EC50 concentration is added. The resulting light signal is measured immediately in a luminometer.
as §3

SMILES: CC(C)(C)OCC(N)c1nc(Cn2nc(-c3ccc(Cl)cc3)n(C[C@H](O)C(F)(F)F)c2=O)nn1-c1ccccc1Cl (mixture of isomers) [Example 80, 2-({5-[1-Amino-2-tert-butoxyethyl]-1-(2-chlorophenyl)-1H-1,2,4-triazol-3-yl}methyl)-5-(4-chlorophenyl)-4-[(2S)-3,3,3-trifluoro-2-hydroxypropyl]-2,4-dihydro-3H-1,2,4-triazol-3-one]
- IC50 [1]: 19 nM
- IC50 [2]: 0.61 nM
- ratio IC50 hV2/hV1a [2]: 31.4

SMILES: NC(CO)c1nc(Cn2nc(-c3ccc(Cl)cc3)n(C[C@H](O)C(F)(F)F)c2=O)nn1-c1ccccc1Cl (mixture of isomers) [Example 81, 2-({5-[1-Amino-2-hydroxyethyl]-1-(2-chlorophenyl)-1H-1,2,4-triazol-3-yl}methyl)-5-(4-chlorophenyl)-4-[(2S)-3,3,3-trifluoro-2-hydroxypropyl]-2,4-dihydro-3H-1,2,4-triazol-3-one hydrochloride]
- IC50 [1]: 7.95 nM
- IC50 [2]: 1.25 nM
- ratio IC50 hV2/hV1a [2]: 6.4

SMILES: CC(C)(C)OCC(NS(C)(=O)=O)c1nc(Cn2nc(-c3ccc(Cl)cc3)n(C[C@H](O)C(F)(F)F)c2=O)nn1-c1ccccc1Cl (mixture of isomers) [Example 82, N-{2-tert-Butoxy-1-[1-(2-chlorophenyl)-3-({3-(4-chlorophenyl)-5-oxo-4-[(2S)-3,3,3-trifluoro-2-hydroxypropyl]-4,5-dihydro-1H-1,2,4-triazol-1-yl}methyl)-1H-1,2,4-triazol-5-yl]ethyl}methanesulfonamide]
- IC50 [1]: 48 nM
- IC50 [2]: 0.64 nM
- ratio IC50 hV2/hV1a [2]: 75.6

SMILES: CS(=O)(=O)NC(CO)c1nc(Cn2nc(-c3ccc(Cl)cc3)n(C[C@H](O)C(F)(F)F)c2=O)nn1-c1ccccc1Cl (mixture of isomers) [Example 85, N-{1-[1-(2-Chlorophenyl)-3-({3-(4-chlorophenyl)-5-oxo-4-[(2S)-3,3,3-trifluoro-2-hydroxypropyl]-4,5-dihydro-1H-1,2,4-triazol-1-yl}methyl)-1H-1,2,4-triazol-5-yl]-2-hydroxyethyl}-methanesulfonamide]
- IC50 [1]: 2.25 nM
- IC50 [2]: 0.35 nM
- ratio IC50 hV2/hV1a [2]: 6.4

SMILES: CC(=O)NC(COC(C)(C)C)c1nc(Cn2nc(-c3ccc(Cl)cc3)n(C[C@H](O)C(F)(F)F)c2=O)nn1-c1ccccc1Cl (mixture of isomers) [Example 88, N-{2-tert-Butoxy-1-[1-(2-chlorophenyl)-3-({3-(4-chlorophenyl)-5-oxo-4-[(2S)-3,3,3-trifluoro-2-hydroxypropyl]-4,5-dihydro-1H-1,2,4-triazol-1-yl}methyl)-1H-1,2,4-triazol-5-yl]ethyl}acetamide]
- IC50 [1]: 45.5 nM
- IC50 [2]: 1.5 nM
- ratio IC50 hV2/hV1a [2]: 30.3

SMILES: CC(=O)NC(CO)c1nc(Cn2nc(-c3ccc(Cl)cc3)n(C[C@H](O)C(F)(F)F)c2=O)nn1-c1ccccc1Cl (mixture of isomers) [Example 91, N-{1-[1-(2-Chlorophenyl)-3-({3-(4-chlorophenyl)-5-oxo-4-[(2S)-3,3,3-trifluoro-2-hydroxypropyl]-4,5-dihydro-1H-1,2,4-triazol-1-yl}methyl)-1H-1,2,4-triazol-5-yl]-2-hydroxyethyl}acetamide]
- IC50 [1]: 8.9 nM
- IC50 [2]: 0.71 nM
- ratio IC50 hV2/hV1a [2]: 12.5

SMILES: CC(C)(C)OCC(NC(=O)C(F)(F)F)c1nc(Cn2nc(-c3ccc(Cl)cc3)n(C[C@H](O)C(F)(F)F)c2=O)nn1-c1ccccc1Cl (mixture of isomers) [Example 94, N-{2-tert-Butoxy-1-[1-(2-chlorophenyl)-3-({3-(4-chlorophenyl)-5-oxo-4-[(2S)-3,3,3-trifluoro-2-hydroxypropyl]-4,5-dihydro-1H-1,2,4-triazol-1-yl}methyl)-1H-1,2,4-triazol-5-yl]ethyl}-2,2,2-trifluoroacetamide]
- IC50 [1]: 27.5 nM
- IC50 [2]: 1.1 nM
- ratio IC50 hV2/hV1a [2]: 25.0

SMILES: O=C(NC(CO)c1nc(Cn2nc(-c3ccc(Cl)cc3)n(C[C@H](O)C(F)(F)F)c2=O)nn1-c1ccccc1Cl)C(F)(F)F (mixture of isomers) [Example 95, N-{1-[1-(2-Chlorophenyl)-3-({3-(4-chlorophenyl)-5-oxo-4-[(2S)-3,3,3-trifluoro-2-hydroxypropyl]-4,5-dihydro-1H-1,2,4-triazol-1-yl}methyl)-1H-1,2,4-triazol-5-yl]-2-hydroxyethyl}-2,2,2-trifluoroacetamide]
- IC50 [1]: 18 nM
- IC50 [2]: 2.1 nM
- ratio IC50 hV2/hV1a [2]: 8.6

SMILES: O=C1NC(c2nc(Cn3nc(-c4ccc(Cl)cc4)n(C[C@H](O)C(F)(F)F)c3=O)nn2-c2ccccc2Cl)CO1 (mixture of isomers) [Example 98, 5-(4-Chlorophenyl)-2-({1-(2-chlorophenyl)-5-[2-oxo-1,3-oxazolidin-4-yl]-1H-1,2,4-triazol-3-yl}methyl)-4-[(2S)-3,3,3-trifluoro-2-hydroxypropyl]-2,4-dihydro-3H-1,2,4-triazol-3-one]
- IC50 [1]: 6 nM
- IC50 [2]: 0.62 nM
- ratio IC50 hV2/hV1a [2]: 9.8

SMILES: CN1C(=O)CCC1c1nc(Cn2nc(-c3ccc(Cl)cc3)n(C[C@H](O)C(F)(F)F)c2=O)nn1-c1ncccc1Cl (mixture of isomers) [Example 103, 5-(4-Chlorophenyl)-2-({1-(3-chloropyridin-2-yl)-5-[(2R)-1-methyl-5-oxopyrrolidin-2-yl]-1H-1,2,4-triazol-3-yl}methyl)-4-[(2S)-3,3,3-trifluoro-2-hydroxypropyl]-2,4-dihydro-3H-1,2,4-triazol-3-one]
- IC50 [1]: 26.5 nM
- IC50 [2]: 1.45 nM
- ratio IC50 hV2/hV1a [2]: 18.3

SMILES: CC(N)c1nc(Cn2nc(-c3ccc(Cl)cc3)n(C[C@H](O)C(F)(F)F)c2=O)nn1-c1ncccc1Cl (mixture of isomers) [Example 106, 2-({5-[1-Aminoethyl]-1-(3-chloropyridin-2-yl)-1H-1,2,4-triazol-3-yl}methyl)-5-(4-chlorophenyl)-4-[(2S)-3,3,3-trifluoro-2-hydroxypropyl]-2,4-dihydro-3H-1,2,4-triazol-3-one]
- IC50 [1]: 18.5 nM
- IC50 [2]: 1.65 nM
- ratio IC50 hV2/hV1a [2]: 11.2

SMILES: CC(=O)NC(C)c1nc(Cn2nc(-c3ccc(Cl)cc3)n(C[C@H](O)C(F)(F)F)c2=O)nn1-c1ncccc1Cl (mixture of isomers) [Example 107, N-{1-[3-({3-(4-Chlorophenyl)-5-oxo-4-[(2S)-3,3,3-trifluoro-2-hydroxypropyl]-4,5-dihydro-1H-1,2,4-triazol-1-yl}methyl)-1-(3-chloropyridin-2-yl)-1H-1,2,4-triazol-5-yl]ethyl}acetamide]
- IC50 [1]: 240 nM
- IC50 [2]: 13.5 nM
- ratio IC50 hV2/hV1a [2]: 17.8

SMILES: O=C1NC(c2nc(Cn3nc(-c4ccc(Cl)cc4)n(C[C@H](O)C(F)(F)F)c3=O)nn2-c2ncccc2Cl)CO1 (mixture of isomers) [Example 112, 5-(4-Chlorophenyl)-2-({1-(3-chloropyridin-2-yl)-5-[2-oxo-1,3-oxazolidin-4-yl]-1H-1,2,4-triazol-3-yl}methyl)-4-[(2S)-3,3,3-trifluoro-2-hydroxypropyl]-2,4-dihydro-3H-1,2,4-triazol-3-one]
- IC50 [1]: 210 nM
- IC50 [2]: 8.4 nM
- ratio IC50 hV2/hV1a [2]: 25.0

SMILES: O=C1NC(c2nc(Cn3nc(-c4ccc(Cl)cc4)n(C[C@H](O)C(F)(F)F)c3=O)nn2-c2ncccc2OC(F)(F)F)CO1 (mixture of isomers) [Example 117, 5-(4-Chlorophenyl)-2-({5-[2-oxo-1,3-oxazolidin-4-yl]-1-[3-(trifluoromethoxy)pyridin-2-yl]-1H-1,2,4-triazol-3-yl}methyl)-4-[(2S)-3,3,3-trifluoro-2-hydroxypropyl]-2,4-dihydro-3H-1,2,4-triazol-3-one]
- IC50 [1]: 470 nM
- IC50 [2]: 21.5 nM
- ratio IC50 hV2/hV1a [2]: 21.9
